Holding throughout (test): cell-based
For one experiment, the target named is hNav1.3 (Homo sapiens, UniProt Q9NY46). As to conditions: IonWorks Quattro; clamped to −110 mV, depolarized to −10 mV, 5 min after compound; n=2; read-out: IWQ Use Nav1.3.
For a further experiment, the target named is hNav1.7 (Homo sapiens, UniProt Q15858). The format is cell-based. As to conditions: IonWorks Quattro; clamped to −110 mV, depolarized to −10 mV, 5 min after compound; n=2; read-out: IWQ Use Nav1.7.
The target of the next experiment is hNav1.5 (Homo sapiens, UniProt Q14524). As to conditions: IonWorks Quattro; clamped to −110 mV, depolarized to −10 mV, 5 min after compound; n=2; read-out: IWQ Use Nav1.5. (The patch-clamp technique gives a direct electrical read-out from membranes.)
hNav1.5, sequence (Q14524 whole entry, looked up): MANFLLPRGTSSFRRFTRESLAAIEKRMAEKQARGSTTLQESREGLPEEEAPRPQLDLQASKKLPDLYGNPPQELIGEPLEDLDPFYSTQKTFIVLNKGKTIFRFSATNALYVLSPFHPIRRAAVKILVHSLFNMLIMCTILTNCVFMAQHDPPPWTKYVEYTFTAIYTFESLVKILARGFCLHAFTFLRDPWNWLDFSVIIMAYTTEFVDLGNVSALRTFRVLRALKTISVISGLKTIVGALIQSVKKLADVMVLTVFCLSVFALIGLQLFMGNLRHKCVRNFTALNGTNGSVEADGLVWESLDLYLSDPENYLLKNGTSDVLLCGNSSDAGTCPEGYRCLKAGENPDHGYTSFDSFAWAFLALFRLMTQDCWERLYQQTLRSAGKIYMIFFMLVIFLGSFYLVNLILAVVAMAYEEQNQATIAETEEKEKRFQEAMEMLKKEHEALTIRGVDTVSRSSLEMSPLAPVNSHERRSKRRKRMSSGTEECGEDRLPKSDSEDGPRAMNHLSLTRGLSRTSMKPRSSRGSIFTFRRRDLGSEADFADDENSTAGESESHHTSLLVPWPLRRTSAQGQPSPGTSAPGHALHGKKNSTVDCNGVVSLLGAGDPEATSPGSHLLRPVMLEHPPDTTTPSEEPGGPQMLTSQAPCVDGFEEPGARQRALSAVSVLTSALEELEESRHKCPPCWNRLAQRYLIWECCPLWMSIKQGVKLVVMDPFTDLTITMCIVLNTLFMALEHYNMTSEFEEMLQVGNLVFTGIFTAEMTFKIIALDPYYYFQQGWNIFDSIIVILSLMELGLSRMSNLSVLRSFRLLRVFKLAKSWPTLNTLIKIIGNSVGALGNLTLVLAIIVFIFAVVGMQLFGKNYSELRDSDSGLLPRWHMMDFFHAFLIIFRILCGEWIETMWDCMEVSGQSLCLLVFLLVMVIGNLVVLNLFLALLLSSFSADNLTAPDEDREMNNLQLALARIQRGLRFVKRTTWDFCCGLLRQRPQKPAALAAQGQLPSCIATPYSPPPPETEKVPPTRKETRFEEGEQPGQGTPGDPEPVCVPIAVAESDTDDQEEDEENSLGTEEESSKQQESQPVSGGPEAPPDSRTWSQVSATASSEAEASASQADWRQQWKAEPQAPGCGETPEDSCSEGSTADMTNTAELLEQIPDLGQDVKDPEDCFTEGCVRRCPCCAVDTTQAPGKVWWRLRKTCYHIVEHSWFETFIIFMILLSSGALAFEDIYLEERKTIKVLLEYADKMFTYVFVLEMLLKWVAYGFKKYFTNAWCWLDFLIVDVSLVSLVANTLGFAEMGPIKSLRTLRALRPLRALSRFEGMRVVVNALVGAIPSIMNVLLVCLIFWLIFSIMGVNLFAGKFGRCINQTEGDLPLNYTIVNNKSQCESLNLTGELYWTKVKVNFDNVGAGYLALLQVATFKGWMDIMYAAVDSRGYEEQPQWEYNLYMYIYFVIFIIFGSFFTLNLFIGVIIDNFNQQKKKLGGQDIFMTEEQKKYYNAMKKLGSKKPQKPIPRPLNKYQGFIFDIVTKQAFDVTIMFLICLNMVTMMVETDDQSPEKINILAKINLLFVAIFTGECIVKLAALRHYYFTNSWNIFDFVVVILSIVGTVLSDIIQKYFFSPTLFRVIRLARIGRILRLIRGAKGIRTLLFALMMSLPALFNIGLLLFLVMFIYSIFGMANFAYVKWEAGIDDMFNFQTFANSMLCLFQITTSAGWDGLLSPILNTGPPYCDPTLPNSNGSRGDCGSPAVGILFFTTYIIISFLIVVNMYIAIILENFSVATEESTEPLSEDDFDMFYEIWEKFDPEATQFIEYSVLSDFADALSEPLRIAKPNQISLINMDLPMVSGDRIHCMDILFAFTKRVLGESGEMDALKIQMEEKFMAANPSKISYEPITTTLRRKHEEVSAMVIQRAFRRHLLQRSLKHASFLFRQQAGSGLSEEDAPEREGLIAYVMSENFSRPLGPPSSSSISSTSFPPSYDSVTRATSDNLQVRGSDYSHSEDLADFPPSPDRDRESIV

Positions of bridges follow the written chain, without caps; N, C: chain ends. Residues, ends and D or L forms follow the SMILES beside them.

hNav1.3, sequence (Q9NY46 whole entry, looked up): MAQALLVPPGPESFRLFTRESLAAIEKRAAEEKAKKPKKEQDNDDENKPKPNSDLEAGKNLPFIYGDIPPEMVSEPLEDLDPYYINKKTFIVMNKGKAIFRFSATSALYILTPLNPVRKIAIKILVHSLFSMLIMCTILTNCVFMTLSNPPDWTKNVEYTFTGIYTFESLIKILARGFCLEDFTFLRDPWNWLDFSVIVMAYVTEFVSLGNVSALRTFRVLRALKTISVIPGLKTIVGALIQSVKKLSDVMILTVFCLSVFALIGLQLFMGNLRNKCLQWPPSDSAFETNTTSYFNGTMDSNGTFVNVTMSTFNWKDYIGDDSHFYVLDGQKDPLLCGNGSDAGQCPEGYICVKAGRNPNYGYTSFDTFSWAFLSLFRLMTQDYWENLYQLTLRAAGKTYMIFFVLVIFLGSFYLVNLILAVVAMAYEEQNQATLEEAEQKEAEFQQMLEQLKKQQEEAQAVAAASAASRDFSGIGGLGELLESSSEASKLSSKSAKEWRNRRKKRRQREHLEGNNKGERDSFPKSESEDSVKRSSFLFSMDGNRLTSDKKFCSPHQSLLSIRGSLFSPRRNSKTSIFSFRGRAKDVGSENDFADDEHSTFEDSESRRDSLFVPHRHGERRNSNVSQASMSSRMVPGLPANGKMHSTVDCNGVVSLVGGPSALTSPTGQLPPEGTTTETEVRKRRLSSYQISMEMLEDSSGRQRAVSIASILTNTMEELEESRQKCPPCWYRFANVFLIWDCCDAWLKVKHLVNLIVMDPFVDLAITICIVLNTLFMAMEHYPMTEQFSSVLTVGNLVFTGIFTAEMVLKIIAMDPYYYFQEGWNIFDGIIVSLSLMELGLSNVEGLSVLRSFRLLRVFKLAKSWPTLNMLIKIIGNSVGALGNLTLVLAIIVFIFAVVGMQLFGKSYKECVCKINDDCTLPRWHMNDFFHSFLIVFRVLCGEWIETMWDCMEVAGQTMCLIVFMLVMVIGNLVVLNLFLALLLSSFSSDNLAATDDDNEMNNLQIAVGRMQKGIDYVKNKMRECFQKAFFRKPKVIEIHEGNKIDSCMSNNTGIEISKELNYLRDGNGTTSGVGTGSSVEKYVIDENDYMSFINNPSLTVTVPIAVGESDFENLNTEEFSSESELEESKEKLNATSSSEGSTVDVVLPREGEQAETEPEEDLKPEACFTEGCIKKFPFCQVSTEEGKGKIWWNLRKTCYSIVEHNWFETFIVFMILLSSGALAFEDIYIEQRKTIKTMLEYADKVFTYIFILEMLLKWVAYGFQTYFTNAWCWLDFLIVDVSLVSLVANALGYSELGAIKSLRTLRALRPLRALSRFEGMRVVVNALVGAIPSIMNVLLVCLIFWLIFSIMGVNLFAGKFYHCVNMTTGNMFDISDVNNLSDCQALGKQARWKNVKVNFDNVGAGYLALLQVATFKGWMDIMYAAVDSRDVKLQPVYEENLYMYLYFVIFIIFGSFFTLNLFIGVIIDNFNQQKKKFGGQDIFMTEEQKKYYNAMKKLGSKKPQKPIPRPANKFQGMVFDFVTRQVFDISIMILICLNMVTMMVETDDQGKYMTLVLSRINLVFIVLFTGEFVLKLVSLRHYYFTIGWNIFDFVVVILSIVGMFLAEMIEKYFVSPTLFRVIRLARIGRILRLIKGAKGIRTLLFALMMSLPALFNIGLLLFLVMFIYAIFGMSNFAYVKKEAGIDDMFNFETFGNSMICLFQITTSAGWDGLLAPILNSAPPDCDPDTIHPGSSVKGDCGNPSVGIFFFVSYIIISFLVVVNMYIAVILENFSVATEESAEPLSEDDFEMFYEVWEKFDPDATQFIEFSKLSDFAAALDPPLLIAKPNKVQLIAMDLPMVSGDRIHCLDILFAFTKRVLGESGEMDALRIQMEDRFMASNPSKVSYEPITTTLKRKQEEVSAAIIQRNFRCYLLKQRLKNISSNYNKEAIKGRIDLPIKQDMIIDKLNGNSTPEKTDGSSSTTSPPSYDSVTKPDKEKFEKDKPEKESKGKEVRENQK

For `CC[C@H](C)[C@@H]1NC(=O)[C@@H]2CSSC[C@@H]3NC(=O)[C@H](C(C)C)NC(=O)[C@H](CC(C)C)NC(=O)[C@H](CC(N)=O)NC(=O)[C@@H]4CCCN4C(=O)[C@H](CCCNC(=N)N)NC(=O)[C@H](CSSC[C@H](NC(=O)[C@@H](N)CC(=O)O)C(=O)N[C@@H](CC(C)C)C(=O)NCC(=O)N[C@@H](Cc4ccccn4)C(=O)N[C@@H](CCSC)C(=O)N[C@@H](CCCNC(=N)N)C(=O)N[C@@H](CCCCN)C(=O)N2)NC(=O)[C@H](CSSC[C@@H](C(=O)N[C@@H](CCCCN)C(=O)N[C@@H](Cc2ccc(O)cc2)C(=O)N[C@H](C(=O)N[C@@H](Cc2ccccc2)C(N)=O)C(C)C)NC(=O)[C@H](Cc2c[nH]c4ccccc24)NC(=O)[C@H](CCCCN)NC(=O)[C@H](Cc2c[nH]cn2)NC(=O)[C@H]([C@@H](C)O)NC(=O)[C@H](CCCNC(=N)N)NC(=O)[C@H](CO)NC3=O)NC(=O)[C@H](CCCCN)NC(=O)[C@H](CC(=O)O)NC(=O)[C@H](CC(N)=O)NC(=O)[C@H](CC(=O)O)NC(=O)[C@@H]2CCCN2C1=O` [SEQ ID NO: 277], the IC50 on hNav1.3 turned out to be 4.58 µM; on hNav1.7 it was 2.07 µM; at hNav1.5 it was 9.25 µM.
For the compound `CC[C@H](C)[C@@H]1NC(=O)[C@@H]2CSSC[C@@H]3NC(=O)[C@H](C(C)C)NC(=O)[C@H](CC(C)C)NC(=O)[C@H](CC(N)=O)NC(=O)[C@@H]4CCCN4C(=O)[C@H](CCCNC(=N)N)NC(=O)[C@H](CSSC[C@H](NC(=O)[C@@H](N)CC(=O)O)C(=O)N[C@@H](CC(C)C)C(=O)NCC(=O)N[C@@H](Cc4ccccc4)C(=O)N[C@@H](CC(N)=O)C(=O)N[C@@H](CCCNC(=N)N)C(=O)N[C@@H](CCCCN)C(=O)N2)NC(=O)[C@H](CSSC[C@@H](C(=O)N[C@@H](CCCCN)C(=O)N[C@@H](Cc2ccc(O)cc2)C(=O)N[C@H](C(=O)N[C@@H](Cc2ccccc2)C(N)=O)C(C)C)NC(=O)[C@H](Cc2c[nH]c4ccccc24)NC(=O)[C@H](CCCCN)NC(=O)[C@H](Cc2c[nH]cn2)NC(=O)[C@H]([C@@H](C)O)NC(=O)[C@H](CCCNC(=N)N)NC(=O)[C@H](CO)NC3=O)NC(=O)[C@H](CCCCN)NC(=O)[C@H](CC(=O)O)NC(=O)[C@H](CC(N)=O)NC(=O)[C@H](CC(=O)O)NC(=O)[C@@H]2CCCN2C1=O` [SEQ ID NO: 278] (H-DCLGFNRKCIPDNDKCCRPNLVCSRTHKWCKYVF-NH2; disulfide 2-17, 9-23, 16-30), the results for the IC50 on hNav1.3, at hNav1.7 and at hNav1.5 were 6.28 µM, 6.89 µM and 10.3 µM, respectively.
Take `CC[C@H](C)[C@@H]1NC(=O)[C@@H]2CSSC[C@@H]3NC(=O)[C@H](C(C)C)NC(=O)[C@H](CC(C)C)NC(=O)[C@H](CC(N)=O)NC(=O)[C@@H]4CCCN4C(=O)[C@H](CCCNC(=N)N)NC(=O)[C@H](CSSC[C@H](NC(=O)[C@@H](N)CC(=O)O)C(=O)N[C@@H](CC(C)C)C(=O)NCC(=O)N[C@@H](Cc4ccccc4)C(=O)N[C@@H](CCC(N)=O)C(=O)N[C@@H](CCCNC(=N)N)C(=O)N[C@@H](CCCCN)C(=O)N2)NC(=O)[C@H](CSSC[C@@H](C(=O)N[C@@H](CCCCN)C(=O)N[C@@H](Cc2ccc(O)cc2)C(=O)N[C@H](C(=O)N[C@@H](Cc2ccccc2)C(N)=O)C(C)C)NC(=O)[C@H](Cc2c[nH]c4ccccc24)NC(=O)[C@H](CCCCN)NC(=O)[C@H](Cc2c[nH]cn2)NC(=O)[C@H]([C@@H](C)O)NC(=O)[C@H](CCCNC(=N)N)NC(=O)[C@H](CO)NC3=O)NC(=O)[C@H](CCCCN)NC(=O)[C@H](CC(=O)O)NC(=O)[C@H](CC(N)=O)NC(=O)[C@H](CC(=O)O)NC(=O)[C@@H]2CCCN2C1=O` [SEQ ID NO: 279] (H-DCLGFQRKCIPDNDKCCRPNLVCSRTHKWCKYVF-NH2; disulfide 2-17, 9-23, 16-30): the IC50 at hNav1.3 worked out at 5.96 µM; at hNav1.7 it was 8.62 µM; on hNav1.5, 7.57 µM.
Turning to `CC[C@H](C)[C@@H]1NC(=O)[C@@H]2CSSC[C@@H]3NC(=O)[C@H](C(C)C)NC(=O)[C@H](CC(C)C)NC(=O)[C@H](CC(N)=O)NC(=O)[C@@H]4CCCN4C(=O)[C@H](CCCNC(=N)N)NC(=O)[C@H](CSSC[C@H](NC(=O)[C@@H](N)CC(=O)O)C(=O)N[C@@H](CC(C)C)C(=O)NCC(=O)N[C@@H](Cc4ccccc4)C(=O)NCC(=O)N[C@@H](CCCNC(=N)N)C(=O)N[C@@H](CCCCN)C(=O)N2)NC(=O)[C@H](CSSC[C@@H](C(=O)N[C@@H](CCCCN)C(=O)N[C@@H](Cc2ccc(O)cc2)C(=O)N[C@H](C(=O)N[C@@H](Cc2ccccc2)C(N)=O)C(C)C)NC(=O)[C@H](Cc2c[nH]c4ccccc24)NC(=O)[C@H](CCCCN)NC(=O)[C@H](Cc2c[nH]cn2)NC(=O)[C@H]([C@@H](C)O)NC(=O)[C@H](CCCNC(=N)N)NC(=O)[C@H](CO)NC3=O)NC(=O)[C@H](CCCCN)NC(=O)[C@H](CC(=O)O)NC(=O)[C@H](CC(N)=O)NC(=O)[C@H](CC(=O)O)NC(=O)[C@@H]2CCCN2C1=O` [SEQ ID NO: 280] (H-DCLGFGRKCIPDNDKCCRPNLVCSRTHKWCKYVF-NH2; disulfide 2-17, 9-23, 16-30), the values for the IC50 at hNav1.3, on hNav1.7 and at hNav1.5 were 0.14 µM, 0.18 µM and 8.2 µM, respectively.
On the same counts, the results for `CC[C@H](C)[C@@H]1NC(=O)[C@@H]2CSSC[C@@H]3NC(=O)[C@H](C(C)C)NC(=O)[C@H](CC(C)C)NC(=O)[C@H](CC(N)=O)NC(=O)[C@@H]4CCCN4C(=O)[C@H](CCCNC(=N)N)NC(=O)[C@H](CSSC[C@H](NC(=O)[C@@H](N)CC(=O)O)C(=O)N[C@@H](CC(C)C)C(=O)NCC(=O)N[C@@H](Cc4ccccc4)C(=O)N[C@@H](Cc4c[nH]cn4)C(=O)N[C@@H](CCCNC(=N)N)C(=O)N[C@@H](CCCCN)C(=O)N2)NC(=O)[C@H](CSSC[C@@H](C(=O)N[C@@H](CCCCN)C(=O)N[C@@H](Cc2ccc(O)cc2)C(=O)N[C@H](C(=O)N[C@@H](Cc2ccccc2)C(N)=O)C(C)C)NC(=O)[C@H](Cc2c[nH]c4ccccc24)NC(=O)[C@H](CCCCN)NC(=O)[C@H](Cc2c[nH]cn2)NC(=O)[C@H]([C@@H](C)O)NC(=O)[C@H](CCCNC(=N)N)NC(=O)[C@H](CO)NC3=O)NC(=O)[C@H](CCCCN)NC(=O)[C@H](CC(=O)O)NC(=O)[C@H](CC(N)=O)NC(=O)[C@H](CC(=O)O)NC(=O)[C@@H]2CCCN2C1=O` [SEQ ID NO: 281] (H-DCLGFHRKCIPDNDKCCRPNLVCSRTHKWCKYVF-NH2; disulfide 2-17, 9-23, 16-30) are 7.77 µM, 4.72 µM and 10.1 µM.
For the compound `CC[C@H](C)[C@@H]1NC(=O)[C@H](Cc2ccccc2)NC(=O)CNC(=O)[C@H](CC(C)C)NC(=O)[C@@H](NC(=O)[C@@H](N)CC(=O)O)CSSC[C@@H]2NC(=O)[C@@H]3CSSC[C@@H](C(=O)N[C@@H](CCCCN)C(=O)N[C@@H](Cc4ccc(O)cc4)C(=O)N[C@H](C(=O)N[C@@H](Cc4ccccc4)C(N)=O)C(C)C)NC(=O)[C@H](Cc4c[nH]c5ccccc45)NC(=O)[C@H](CCCCN)NC(=O)[C@H](Cc4c[nH]cn4)NC(=O)[C@H]([C@@H](C)O)NC(=O)[C@H](CCCNC(=N)N)NC(=O)[C@H](CO)NC(=O)[C@H](CSSC[C@H](NC(=O)[C@H](CCCCN)NC(=O)[C@H](CCCNC(=N)N)NC1=O)C(=O)N[C@@H]([C@@H](C)CC)C(=O)N1CCC[C@H]1C(=O)N[C@@H](CC(=O)O)C(=O)N[C@@H](CC(N)=O)C(=O)N[C@@H](CC(=O)O)C(=O)N[C@@H](CCCCN)C(=O)N3)NC(=O)[C@H](C(C)C)NC(=O)[C@H](CC(C)C)NC(=O)[C@H](CC(N)=O)NC(=O)[C@@H]1CCCN1C(=O)[C@H](CCCNC(=N)N)NC2=O` [SEQ ID NO: 282] (H-DCLGFIRKCIPDNDKCCRPNLVCSRTHKWCKYVF-NH2; disulfide 2-17, 9-23, 16-30), the IC50 on hNav1.3 amounted to 0.06 µM; on hNav1.7, 0.07 µM; on hNav1.5, 8.63 µM.
Consider `CC[C@H](C)[C@@H]1NC(=O)[C@@H]2CSSC[C@@H]3NC(=O)[C@H](C(C)C)NC(=O)[C@H](CC(C)C)NC(=O)[C@H](CC(N)=O)NC(=O)[C@@H]4CCCN4C(=O)[C@H](CCCNC(=N)N)NC(=O)[C@H](CSSC[C@H](NC(=O)[C@@H](N)CC(=O)O)C(=O)N[C@@H](CC(C)C)C(=O)NCC(=O)N[C@@H](Cc4ccccc4)C(=O)N[C@@H](CO)C(=O)N[C@@H](CCCNC(=N)N)C(=O)N[C@@H](CCCCN)C(=O)N2)NC(=O)[C@H](CSSC[C@@H](C(=O)N[C@@H](CCCCN)C(=O)N[C@@H](Cc2ccc(O)cc2)C(=O)N[C@H](C(=O)N[C@@H](Cc2ccccc2)C(N)=O)C(C)C)NC(=O)[C@H](Cc2c[nH]c4ccccc24)NC(=O)[C@H](CCCCN)NC(=O)[C@H](Cc2c[nH]cn2)NC(=O)[C@H]([C@@H](C)O)NC(=O)[C@H](CCCNC(=N)N)NC(=O)[C@H](CO)NC3=O)NC(=O)[C@H](CCCCN)NC(=O)[C@H](CC(=O)O)NC(=O)[C@H](CC(N)=O)NC(=O)[C@H](CC(=O)O)NC(=O)[C@@H]2CCCN2C1=O` [SEQ ID NO: 284] (H-DCLGFSRKCIPDNDKCCRPNLVCSRTHKWCKYVF-NH2; disulfide 2-17, 9-23, 16-30), for which the IC50 on hNav1.3 was 0.71 µM; on hNav1.7 it was 1.02 µM; on hNav1.5, 16.9 µM.
`CC[C@H](C)[C@@H]1NC(=O)[C@@H]2CSSC[C@@H]3NC(=O)[C@H](C(C)C)NC(=O)[C@H](CC(C)C)NC(=O)[C@H](CC(N)=O)NC(=O)[C@@H]4CCCN4C(=O)[C@H](CCCNC(=N)N)NC(=O)[C@H](CSSC[C@H](NC(=O)[C@@H](N)CC(=O)O)C(=O)N[C@@H](CC(C)C)C(=O)NCC(=O)N[C@@H](Cc4ccccc4)C(=O)N[C@@H]([C@@H](C)O)C(=O)N[C@@H](CCCNC(=N)N)C(=O)N[C@@H](CCCCN)C(=O)N2)NC(=O)[C@H](CSSC[C@@H](C(=O)N[C@@H](CCCCN)C(=O)N[C@@H](Cc2ccc(O)cc2)C(=O)N[C@H](C(=O)N[C@@H](Cc2ccccc2)C(N)=O)C(C)C)NC(=O)[C@H](Cc2c[nH]c4ccccc24)NC(=O)[C@H](CCCCN)NC(=O)[C@H](Cc2c[nH]cn2)NC(=O)[C@H]([C@@H](C)O)NC(=O)[C@H](CCCNC(=N)N)NC(=O)[C@H](CO)NC3=O)NC(=O)[C@H](CCCCN)NC(=O)[C@H](CC(=O)O)NC(=O)[C@H](CC(N)=O)NC(=O)[C@H](CC(=O)O)NC(=O)[C@@H]2CCCN2C1=O` [SEQ ID NO: 285] (H-DCLGFTRKCIPDNDKCCRPNLVCSRTHKWCKYVF-NH2; disulfide 2-17, 9-23, 16-30): the IC50 at hNav1.3 stood at 0.28 µM; on hNav1.7 it was 0.59 µM; at hNav1.5, 18.7 µM.
